One assay has as its target Large T antigen (Simian virus 40, UniProt P03070). The format is functional, Betapolyomavirus macacae.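 Also: Confirmatory-stage PubChem screen for compounds that inhibit SV40 T antigen.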
Assay [1] has as its target Intestinal-type alkaline phosphatase (Mus musculus, UniProt P24822). Nature of the assay: PubChem AID 488785. The format is functional.
For assay [2], the target named is T1, Alkaline phosphatase, tissue-nonspecific isozyme (Homo sapiens, UniProt P05186).
T1 sequence (P05186 whole entry): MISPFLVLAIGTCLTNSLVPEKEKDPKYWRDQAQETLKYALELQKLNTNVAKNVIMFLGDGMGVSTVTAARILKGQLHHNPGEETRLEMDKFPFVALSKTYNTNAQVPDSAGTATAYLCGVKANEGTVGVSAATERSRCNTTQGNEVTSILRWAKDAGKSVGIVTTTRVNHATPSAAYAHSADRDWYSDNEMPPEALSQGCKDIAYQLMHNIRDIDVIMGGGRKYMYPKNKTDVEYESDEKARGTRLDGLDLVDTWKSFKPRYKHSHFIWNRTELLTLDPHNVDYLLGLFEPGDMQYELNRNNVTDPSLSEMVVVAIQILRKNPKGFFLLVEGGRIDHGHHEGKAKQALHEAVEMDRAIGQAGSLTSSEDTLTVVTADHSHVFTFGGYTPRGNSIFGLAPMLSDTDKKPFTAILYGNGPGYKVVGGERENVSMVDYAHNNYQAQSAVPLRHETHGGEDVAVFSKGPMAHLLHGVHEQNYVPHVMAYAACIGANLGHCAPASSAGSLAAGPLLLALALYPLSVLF
Nature of the assay: TNAP enzyme inhibition by screening hits, dose response, selectivity assay for mouse IAP inhibitor project, biochemical, human TNAP, uHTS hits (AID 488906). The format is functional.

Assay [3] has as its target Intestinal-type alkaline phosphatase (Homo sapiens, UniProt P09923). Nature of the assay: inhibition of human intestinal alkaline phosphatase – biochemical, dose response (AID 488876). The format is functional.
In assay [4] the test system is Vero. Put plainly: Vero cell cytotoxicity, cytotoxicity control for flavivirus capping enzyme inhibitors (AID 588742). The format is functional. The following applies: Chlorocebus sabaeus.
The next assay has as its target Genome polyprotein (dengue virus type 2, UniProt P29990). Nature of the assay: Dengue-2 NS5 methyltransferase inhibitors, primary screen, biochemical, confirmation dose response (AID 588689). The format is functional.
The nature of assay [5]: Shn3 3'UTR reporter inhibitors, dose response, cell-based, Clone20 osteoblasts, firefly luciferase, cherry-picked (AID 624132).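 Also: firefly luciferase luminescence from reporter carrying the Shn3 3'UTR in osteoblasts.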 The format is functional.
Assay [6] in a line: control 3'UTR Renilla luciferase suppression, dose response, counter-screen for Shn3 inhibitor project, cell-based, Clone20-Shn3RL, cherry-picked (AID 624133). Format: functional.
The target in a further assay is T2, Caspase-6 (Homo sapiens, UniProt P55212).
T2 sequence (P55212 whole entry): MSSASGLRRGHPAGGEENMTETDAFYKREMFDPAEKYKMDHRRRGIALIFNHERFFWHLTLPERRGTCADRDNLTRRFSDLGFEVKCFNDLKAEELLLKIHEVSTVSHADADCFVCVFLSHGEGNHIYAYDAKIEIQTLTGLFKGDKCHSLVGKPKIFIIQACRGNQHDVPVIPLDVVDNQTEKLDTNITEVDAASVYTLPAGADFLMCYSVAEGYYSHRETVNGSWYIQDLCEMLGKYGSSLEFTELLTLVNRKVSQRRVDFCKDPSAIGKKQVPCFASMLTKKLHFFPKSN
Nature of the assay: human caspase-6 inhibitors, dose response, biochemical, VEID-R110 fluorescence, cherry-pick (AID 720632).

Assay [7] has as its target Histone-lysine N-methyltransferase NSD2 (Homo sapiens, UniProt O96028). The format is biochemical.
A further assay concerns the target Transthyretin (Homo sapiens, UniProt P02766). Nature of the assay: Luminescence-based cell-based high throughput dose response assay to identify activators of Transthyretin (TTR) transcription. The format is functional.
For a further assay, the system named is HEK293. Put plainly: HEK293T cell cytotoxicity, dose response, cytotoxicity control, ATP luminescence, cherry-pick samples (AID 687005).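 Also: cells exposed to compound for 48 hours.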 The following applies: Homo sapiens. Format: functional, cell-based.
Assay [8] is described as follows: HEK293 Cytotoxicity Assay Measured in Cell-Based System Using Plate Reader - 7071-01_Inhibitor_Dose_CherryPick_Activity_Set2. The format is functional.
In assay [9] the target is 1-phosphatidylinositol 4,5-bisphosphate phosphodiesterase gamma-1 (Homo sapiens, UniProt P19174). Nature of the assay: Counterscreen for inhibitors of phospholipase C isozymes (PLC-B3): Fluorescence-based biochemical high throughput dose response assay to identify inhibitors of phospholipase C isozymes (PLC-gamma1).
For assay [10], the target named is 1-phosphatidylinositol 4,5-bisphosphate phosphodiesterase beta-3 (Homo sapiens, UniProt Q01970). Put plainly: Fluorescence-based biochemical high throughput dose response assay to identify inhibitors of phospholipase C isozymes (PLC-B3).
The target of assay [11] is T3, Oxysterols receptor LXR-beta (Homo sapiens, UniProt P55055).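 Also: agonist activity at LXR measured by a cell-based luminescence readout across a dose range, run as a counterscreen for daf-12 agonists; HEK293 cells with Gal4-LXR fusion and GAL4-driven luciferase reporter; potency for activation of Gal4-LXR reporter so compounds are agonists.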
T3 sequence (P55055 whole entry): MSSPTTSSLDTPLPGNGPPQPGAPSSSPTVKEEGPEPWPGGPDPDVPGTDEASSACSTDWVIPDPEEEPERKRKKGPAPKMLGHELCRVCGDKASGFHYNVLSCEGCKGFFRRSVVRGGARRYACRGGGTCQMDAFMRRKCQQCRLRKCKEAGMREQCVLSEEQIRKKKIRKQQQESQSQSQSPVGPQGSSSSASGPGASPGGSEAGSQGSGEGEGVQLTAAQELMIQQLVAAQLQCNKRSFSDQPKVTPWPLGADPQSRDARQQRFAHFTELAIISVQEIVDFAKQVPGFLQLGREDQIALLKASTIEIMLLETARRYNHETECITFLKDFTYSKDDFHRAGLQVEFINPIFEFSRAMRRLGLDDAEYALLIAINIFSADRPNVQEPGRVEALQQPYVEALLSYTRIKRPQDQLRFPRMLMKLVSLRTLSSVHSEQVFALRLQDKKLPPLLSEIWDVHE
The format is functional, cell-based.

Assay [12] in a line: ADAM10 inhibitors, peptide cleavage, dose response, biochemical, QFRET (AID 743254).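 Also: ADAM10 enzyme with the DM2 quenched FRET peptide as substrate; EDANS fluorescence gain as the protease cuts the substrate; inhibitor potency against ADAM10 proteolytic activity.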
For assay [13], the target named is Disintegrin and metalloproteinase domain-containing protein 17 (Homo sapiens, UniProt P78536). Nature of the assay: ADAM17 protease inhibitors, dose response, counter-screen for ADAM10 exosite inhibitor project, biochemical, quenched FRET substrate (AID 743253). (Counterscreens check selectivity or assay interference.)
A short description of assay [14]: microbe, parasite or virus in culture. The following applies: Mycobacterium tuberculosis. Format: functional.
The target of a further assay is Nonstructural protein 1 (Influenza A virus, UniProt Q194T2). The format is functional, Influenza A virus (A/California/07/2009(H1N1)).
Assay [15] is described as follows: human group III sPLA2 inhibitors, dose response, biochemical, QFRET, IC50 (AID 743457).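 Also: green fluorescence rise as the enzyme cleaves BODIPY PC-A2 in liposomes; potency for inhibition of the enzyme.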
For assay [16], the system named is Vero. Nature of the assay: host cell cytotoxicity of antiviral hits, dose response, cytotoxicity control for West Nile virus antiviral project, secondary assay (AID 1650). The format is functional. The following applies: Chlorocebus sabaeus.
Assay [17] deals with Vero. Nature of the assay: cells. Format: functional, cell-based. The settings on record: Chlorocebus sabaeus.
Assay [18] relates to Vero. Put plainly: cells. The format is functional. The following applies: Chlorocebus sabaeus.
Assay [19] can be described thus: inhibitors of PGC1a acetylation in cells, dose response, cell-based, cherry-picked samples (AID 720514).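 Also: potency may reflect raised or lowered acetylation signal.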 The format is functional.
A further assay deals with fMet-Leu-Phe receptor (Homo sapiens, UniProt P21462). Put plainly: FPR ligands, dose response (AID 519). Format: functional.
For assay [20], the target named is T4, Aryl hydrocarbon receptor (Homo sapiens, UniProt P35869).
T4 sequence (P35869 whole entry): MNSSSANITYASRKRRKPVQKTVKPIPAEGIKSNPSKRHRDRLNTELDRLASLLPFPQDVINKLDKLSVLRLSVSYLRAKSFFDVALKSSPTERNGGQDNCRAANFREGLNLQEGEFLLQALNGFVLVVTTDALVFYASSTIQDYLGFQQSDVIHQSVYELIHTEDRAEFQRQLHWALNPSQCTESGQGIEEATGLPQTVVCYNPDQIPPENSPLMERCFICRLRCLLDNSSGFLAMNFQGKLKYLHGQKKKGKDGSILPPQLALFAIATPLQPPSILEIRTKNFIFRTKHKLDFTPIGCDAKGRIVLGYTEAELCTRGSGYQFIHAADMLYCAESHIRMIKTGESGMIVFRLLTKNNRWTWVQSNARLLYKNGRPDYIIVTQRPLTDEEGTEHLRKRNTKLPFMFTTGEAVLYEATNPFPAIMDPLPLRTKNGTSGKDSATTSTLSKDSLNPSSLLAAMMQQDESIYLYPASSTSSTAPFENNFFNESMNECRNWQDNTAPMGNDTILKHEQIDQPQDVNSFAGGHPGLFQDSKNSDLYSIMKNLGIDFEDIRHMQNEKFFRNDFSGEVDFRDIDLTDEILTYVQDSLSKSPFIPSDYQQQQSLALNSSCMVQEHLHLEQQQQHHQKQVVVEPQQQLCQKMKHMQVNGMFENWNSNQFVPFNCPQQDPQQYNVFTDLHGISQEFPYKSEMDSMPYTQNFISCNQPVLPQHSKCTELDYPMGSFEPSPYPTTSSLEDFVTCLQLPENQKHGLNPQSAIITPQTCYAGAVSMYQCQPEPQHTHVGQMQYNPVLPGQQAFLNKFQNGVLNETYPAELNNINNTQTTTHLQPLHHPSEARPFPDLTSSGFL
Nature of the assay: Luminescence-based cell-based high throughput dose response assay for activators of the Aryl Hydrocarbon Receptor (AHR). [Related pubchem assays: 2796 (Primary screen (AHR activators in singlicate)), 2845 (Confirmation screen (AHR activators in triplicate)), 434939 (Counterscreen (PXR activators in triplicate)), 2804 (Summary (AHR activators))]. The format is ADME.

Assay [21] is described as follows: HepG2 cell cytotoxicity, dose response, cytotoxicity control, cherry-picks, set 5 (AID 1053118). The format is functional, cell-based.
Assay [22] in a line: HEK293 cell cytotoxicity, dose response, cytotoxicity control, cherry-picks, set 5 (AID 1053117). The format is functional, cell-based.

SMILES strings stand for the structures. Activity calls are given as the source filed them. Where only a bound is given, the exact number is not on record here.

Chain of Disintegrin and metalloproteinase domain-containing protein 17 (P78536 whole entry, the tested form may be a part): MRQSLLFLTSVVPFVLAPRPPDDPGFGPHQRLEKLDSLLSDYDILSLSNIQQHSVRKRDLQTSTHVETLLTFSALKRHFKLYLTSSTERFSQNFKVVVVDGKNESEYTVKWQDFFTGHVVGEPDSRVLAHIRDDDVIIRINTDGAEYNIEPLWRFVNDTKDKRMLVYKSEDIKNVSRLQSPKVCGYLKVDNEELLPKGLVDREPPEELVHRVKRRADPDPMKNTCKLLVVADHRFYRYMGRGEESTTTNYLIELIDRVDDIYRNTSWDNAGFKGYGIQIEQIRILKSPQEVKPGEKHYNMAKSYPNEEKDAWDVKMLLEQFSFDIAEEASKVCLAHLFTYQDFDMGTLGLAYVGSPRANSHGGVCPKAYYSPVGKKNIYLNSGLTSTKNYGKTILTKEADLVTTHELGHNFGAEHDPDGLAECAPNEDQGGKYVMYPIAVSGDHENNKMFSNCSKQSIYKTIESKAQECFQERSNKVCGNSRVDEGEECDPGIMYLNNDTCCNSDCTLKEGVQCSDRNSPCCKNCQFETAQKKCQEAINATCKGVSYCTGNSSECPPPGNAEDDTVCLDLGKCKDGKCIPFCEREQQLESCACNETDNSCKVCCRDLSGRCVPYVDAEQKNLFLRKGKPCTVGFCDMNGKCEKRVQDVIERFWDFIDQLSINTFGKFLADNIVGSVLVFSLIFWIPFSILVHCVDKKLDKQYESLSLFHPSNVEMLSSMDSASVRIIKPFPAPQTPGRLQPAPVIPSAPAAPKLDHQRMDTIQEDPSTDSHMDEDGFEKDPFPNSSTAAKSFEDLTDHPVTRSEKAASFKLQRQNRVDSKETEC
Chain of 1-phosphatidylinositol 4,5-bisphosphate phosphodiesterase beta-3 (Q01970 whole entry, the tested form may be a part): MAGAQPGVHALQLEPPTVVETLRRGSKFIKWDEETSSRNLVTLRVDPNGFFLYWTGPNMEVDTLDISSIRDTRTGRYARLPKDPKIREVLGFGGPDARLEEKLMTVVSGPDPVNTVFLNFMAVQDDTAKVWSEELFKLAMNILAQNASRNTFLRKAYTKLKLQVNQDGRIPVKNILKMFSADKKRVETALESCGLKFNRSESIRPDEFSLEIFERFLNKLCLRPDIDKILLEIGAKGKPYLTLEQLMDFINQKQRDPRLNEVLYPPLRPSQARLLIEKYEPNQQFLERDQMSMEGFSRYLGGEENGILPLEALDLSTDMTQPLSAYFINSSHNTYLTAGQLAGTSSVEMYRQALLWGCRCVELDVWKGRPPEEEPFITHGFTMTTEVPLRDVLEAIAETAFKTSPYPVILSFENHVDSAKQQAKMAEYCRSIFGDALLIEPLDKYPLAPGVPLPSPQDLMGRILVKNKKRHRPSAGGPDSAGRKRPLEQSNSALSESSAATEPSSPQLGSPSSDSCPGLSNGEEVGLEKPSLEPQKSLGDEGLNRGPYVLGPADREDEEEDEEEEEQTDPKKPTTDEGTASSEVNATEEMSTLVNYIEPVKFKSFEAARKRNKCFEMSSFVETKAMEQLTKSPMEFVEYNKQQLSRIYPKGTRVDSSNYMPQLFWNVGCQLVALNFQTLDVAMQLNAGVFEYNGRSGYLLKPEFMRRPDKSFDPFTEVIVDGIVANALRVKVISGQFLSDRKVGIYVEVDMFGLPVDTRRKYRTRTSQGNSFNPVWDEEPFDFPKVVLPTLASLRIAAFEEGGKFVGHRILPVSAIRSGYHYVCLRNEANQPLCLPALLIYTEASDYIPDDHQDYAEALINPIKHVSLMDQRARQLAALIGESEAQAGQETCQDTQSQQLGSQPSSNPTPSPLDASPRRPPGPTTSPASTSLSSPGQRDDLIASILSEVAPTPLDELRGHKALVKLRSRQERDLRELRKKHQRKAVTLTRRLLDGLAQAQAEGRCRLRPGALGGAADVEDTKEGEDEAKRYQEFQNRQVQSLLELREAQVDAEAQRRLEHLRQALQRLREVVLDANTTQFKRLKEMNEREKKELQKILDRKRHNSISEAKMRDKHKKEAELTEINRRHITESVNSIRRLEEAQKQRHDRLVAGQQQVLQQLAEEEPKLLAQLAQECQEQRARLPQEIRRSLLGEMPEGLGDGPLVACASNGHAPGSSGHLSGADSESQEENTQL
Chain of 1-phosphatidylinositol 4,5-bisphosphate phosphodiesterase gamma-1 (P19174 whole entry): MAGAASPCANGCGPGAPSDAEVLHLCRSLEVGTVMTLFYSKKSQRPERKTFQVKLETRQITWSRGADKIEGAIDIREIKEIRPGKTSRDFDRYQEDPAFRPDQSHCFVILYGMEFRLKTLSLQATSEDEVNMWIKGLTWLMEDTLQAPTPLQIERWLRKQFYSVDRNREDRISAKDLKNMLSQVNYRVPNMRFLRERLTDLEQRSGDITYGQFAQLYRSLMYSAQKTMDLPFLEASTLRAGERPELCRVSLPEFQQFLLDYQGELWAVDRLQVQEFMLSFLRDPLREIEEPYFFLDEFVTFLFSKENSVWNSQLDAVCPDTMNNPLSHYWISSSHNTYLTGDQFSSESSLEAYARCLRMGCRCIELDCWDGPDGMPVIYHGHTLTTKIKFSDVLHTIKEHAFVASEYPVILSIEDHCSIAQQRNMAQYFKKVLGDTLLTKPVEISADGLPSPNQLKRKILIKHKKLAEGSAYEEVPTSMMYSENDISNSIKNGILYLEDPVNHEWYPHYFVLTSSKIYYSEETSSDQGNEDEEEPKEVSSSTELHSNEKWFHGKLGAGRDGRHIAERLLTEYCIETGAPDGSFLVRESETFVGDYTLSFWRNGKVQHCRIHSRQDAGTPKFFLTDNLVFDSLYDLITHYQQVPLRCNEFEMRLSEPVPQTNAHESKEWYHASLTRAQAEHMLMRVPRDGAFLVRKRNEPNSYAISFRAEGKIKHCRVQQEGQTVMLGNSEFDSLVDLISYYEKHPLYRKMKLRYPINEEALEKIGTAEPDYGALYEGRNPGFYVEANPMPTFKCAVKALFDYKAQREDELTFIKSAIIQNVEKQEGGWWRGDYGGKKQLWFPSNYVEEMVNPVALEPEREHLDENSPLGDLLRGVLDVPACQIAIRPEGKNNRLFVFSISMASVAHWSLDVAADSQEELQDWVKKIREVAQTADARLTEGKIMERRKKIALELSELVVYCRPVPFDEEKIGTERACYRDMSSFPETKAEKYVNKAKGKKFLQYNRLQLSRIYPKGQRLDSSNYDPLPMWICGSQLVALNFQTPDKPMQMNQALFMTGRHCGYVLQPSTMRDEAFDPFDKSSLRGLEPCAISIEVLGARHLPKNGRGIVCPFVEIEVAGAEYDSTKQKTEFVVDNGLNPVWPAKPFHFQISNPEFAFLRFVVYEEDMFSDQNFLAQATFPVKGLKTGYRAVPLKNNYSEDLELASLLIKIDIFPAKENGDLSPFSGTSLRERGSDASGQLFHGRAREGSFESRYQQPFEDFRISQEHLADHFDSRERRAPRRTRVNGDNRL
Chain of Intestinal-type alkaline phosphatase (Mus musculus, UniProt P24822) (P24822 whole entry): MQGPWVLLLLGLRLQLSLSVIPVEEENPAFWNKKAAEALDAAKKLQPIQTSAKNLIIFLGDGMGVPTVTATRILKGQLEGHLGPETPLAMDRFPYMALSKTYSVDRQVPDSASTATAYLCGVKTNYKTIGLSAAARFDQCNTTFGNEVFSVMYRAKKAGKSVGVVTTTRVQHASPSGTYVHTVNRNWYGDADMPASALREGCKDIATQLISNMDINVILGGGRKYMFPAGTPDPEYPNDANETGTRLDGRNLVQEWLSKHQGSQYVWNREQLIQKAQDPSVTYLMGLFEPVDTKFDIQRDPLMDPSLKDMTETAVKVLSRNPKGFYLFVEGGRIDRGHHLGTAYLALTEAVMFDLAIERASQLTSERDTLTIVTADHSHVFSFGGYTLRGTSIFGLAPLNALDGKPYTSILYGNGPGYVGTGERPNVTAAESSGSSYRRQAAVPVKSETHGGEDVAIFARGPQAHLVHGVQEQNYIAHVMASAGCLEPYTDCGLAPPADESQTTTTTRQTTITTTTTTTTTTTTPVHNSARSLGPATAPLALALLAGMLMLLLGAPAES
Chain of fMet-Leu-Phe receptor (P21462 whole entry): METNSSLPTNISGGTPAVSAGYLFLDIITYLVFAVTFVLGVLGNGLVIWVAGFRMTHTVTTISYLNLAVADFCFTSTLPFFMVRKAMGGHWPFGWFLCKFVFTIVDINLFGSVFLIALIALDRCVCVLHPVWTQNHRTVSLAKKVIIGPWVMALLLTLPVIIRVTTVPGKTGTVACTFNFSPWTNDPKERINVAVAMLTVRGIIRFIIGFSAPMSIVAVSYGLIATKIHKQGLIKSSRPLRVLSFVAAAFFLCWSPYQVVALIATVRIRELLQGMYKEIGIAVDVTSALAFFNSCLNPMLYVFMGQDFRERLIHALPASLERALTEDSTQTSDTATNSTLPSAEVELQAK
Chain of Intestinal-type alkaline phosphatase (Homo sapiens, UniProt P09923) (P09923 whole entry): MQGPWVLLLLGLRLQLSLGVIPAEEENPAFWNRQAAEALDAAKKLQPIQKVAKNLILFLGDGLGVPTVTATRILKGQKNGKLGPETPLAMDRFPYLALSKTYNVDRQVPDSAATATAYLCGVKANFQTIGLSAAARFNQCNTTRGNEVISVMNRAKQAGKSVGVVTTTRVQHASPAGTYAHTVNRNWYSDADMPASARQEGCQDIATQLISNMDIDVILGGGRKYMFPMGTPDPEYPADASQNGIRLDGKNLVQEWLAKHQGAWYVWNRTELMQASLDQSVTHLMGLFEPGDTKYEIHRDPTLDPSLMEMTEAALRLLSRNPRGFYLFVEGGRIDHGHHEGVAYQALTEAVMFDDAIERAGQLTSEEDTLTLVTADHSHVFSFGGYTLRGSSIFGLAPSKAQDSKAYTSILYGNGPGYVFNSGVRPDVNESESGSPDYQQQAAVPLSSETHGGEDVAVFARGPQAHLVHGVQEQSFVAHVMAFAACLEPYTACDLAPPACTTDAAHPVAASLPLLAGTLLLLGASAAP
Chain of Nonstructural protein 1 (Q194T2 whole entry): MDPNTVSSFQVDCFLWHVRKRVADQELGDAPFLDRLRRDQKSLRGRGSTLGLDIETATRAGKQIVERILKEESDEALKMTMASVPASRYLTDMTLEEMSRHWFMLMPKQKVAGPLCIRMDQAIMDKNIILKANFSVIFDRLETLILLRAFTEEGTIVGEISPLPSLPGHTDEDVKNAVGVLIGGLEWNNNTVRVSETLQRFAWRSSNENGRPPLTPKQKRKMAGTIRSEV

With `Oc1ccc(-c2csc(Nc3cccc4ccccc34)n2)cc1O`, the IC50 (in general, the point on the concentration scale where inhibition reaches its midpoint) is 66.2 µM (active) at Large T antigen; 1.63 µM (active) in assay [1]; 78 µM (active) in [2]; 3.36 µM (active) in assay [3]; > 100 µM (active) at Genome polyprotein. Further, the CC50 in the assay on Vero [4] is > 40 µM (active). Also, the AC50 (in general, the concentration giving half of the maximal activity seen) is 1.58 µM (active) in assay [5], 7.93 µM (active) in assay [6], 14.1 µM (active) on Caspase-6 and 10.5 µM (active) in assay [7].

As to `CCOc1ccc(NC2=NC(=O)S/C2=C\c2ccc(O)cc2)cc1`, the EC50 (in general, the concentration needed to bring the measured effect to its halfway point) at Transthyretin was > 167 µM (inactive).

For `C[C@@H]1CN([C@@H](C)CO)C(=O)c2cc(NS(=O)(=O)c3ccc(F)cc3)ccc2O[C@@H](C)CCCCO[C@@H]1CN(C)Cc1ccc2c(c1)OCO2`, the AC50 (in the assay on HEK293; in assay [8]) was 28.3 µM (active) in each case.

Turning to `COC(=O)C(Cc1ccc(O)cc1)NC(=O)C(C)NC(=O)c1ccc(C(C)(C)C)cc1` (stereo not drawn), the IC50 in assay [9] and in assay [10] was > 123 µM (inactive) each time.

Consider `Cc1c(C(=O)OC2CCC(C)CC2)[nH]c2c1C(=O)CCC2` (stereo not drawn), for which the EC50 in [11] is > 67.5 µM (inactive).

On to `O=C(COC(=O)c1ccc(Cl)c(S(=O)(=O)N2CCCCCC2)c1)Nc1ccccc1`, for which the IC50 in assay [12] and in [13] was > 69.5 µM (inactive) each time.

On to `Cc1cc(C)c(C)c(N=Nc2nc3ccccc3n2C)c1C`, for which the CC50 in assay [14] was > 40 µM (active). Further, the IC50 on Nonstructural protein 1 was 17.6 µM (active); in assay [15], > 122 µM (inactive).

As to `O=c1[nH]cnc2cc(-c3ccccc3)sc12`, the EC50 in assay [11] was > 67.5 µM (inactive).

Consider `Cc1nc2ccccn2c1C(=O)/C=C/c1ccc(F)cc1`, for which the values for the CC50 in the assay on Vero [16] and in the assay on Vero [18] were 25.6 µM (active) and 18.7 µM (active), respectively. The IC50 with Vero [17] was > 25 µM (active). The AC50 in [19] is 760 nM (active).

Consider `CCOC(=O)Cc1cc(O)n2nc(C)c(-c3ccc(Cl)cc3)c2n1`, for which the Ki (as a rule, the equilibrium dissociation constant of an inhibitor or competing ligand from its target) on fMet-Leu-Phe receptor is 19 µM (inactive).

Regarding `Cc1ccc2c(c1)c1nc3ccccc3nc1n2C`, the EC50 in assay [20] was 1 µM (active).

For `CO[C@H]1CN(C)C(=O)c2cc(NC(=O)Nc3cc(Cl)cc(Cl)c3)ccc2OC[C@@H](C)NC[C@H]1C`, the figures for the AC50 in assay [21] and in assay [22] were 42.6 µM (active) and > 52 µM (inactive), respectively.

Turning to `O=c1[nH]c2ccccc2c(=O)n1-c1ccc(Cl)cc1Cl`, the IC50 in [9] and in [10] was > 122 µM (inactive) throughout.

As to `O=C(N/N=C/c1ccc(-c2ccccc2[N+](=O)[O-])o1)c1cncc(Br)c1`, the 50% effective concentration (EC50) in assay [20] was 6.71 µM (active).

As for `CC(=O)c1cc(C(C)=O)c(C)nc1C`, the EC50 on Transthyretin is > 167 µM (inactive).

With `CC(C)C1C(=O)N(Cc2cn(CC3CCCCC3)nn2)CCS(=O)(=O)N1Cc1ccc(-c2ccccc2)cc1` (stereo not drawn), the IC50 in [12] was 10.2 µM (inactive); in assay [13] it was > 69.5 µM (inactive).

For `S=C(Nc1cccc(Cl)c1)Nc1ccccc1Oc1ccccc1`, the AC50 (in the assay on HEK293; in assay [8]) was 23.5 µM (active) each time.

For the origin of these results see ChEMBL document CHEMBL1201862, “PubChem BioAssay data set” (2004).
